Measured values published in ChEMBL document CHEMBL1201862, “PubChem BioAssay data set” (2004).
Active and inactive are the calls of the source.

Key:
Bcl-2-like protein 10 = target: T1, Bcl-2-like protein 10 (Homo sapiens, UniProt Q9HD36); assay: displacers of TR3 peptide from Bcl-B, primary screen, selectivity assay for Bfl-1 inhibitor project, biochemical, fluorescence polarization, FITC-TR3 peptide (AID 748);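 note: fluorescence polarization from a fluorescein-labelled TR3 peptide binding purified Bcl-B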
T1 sequence (Q9HD36 whole entry): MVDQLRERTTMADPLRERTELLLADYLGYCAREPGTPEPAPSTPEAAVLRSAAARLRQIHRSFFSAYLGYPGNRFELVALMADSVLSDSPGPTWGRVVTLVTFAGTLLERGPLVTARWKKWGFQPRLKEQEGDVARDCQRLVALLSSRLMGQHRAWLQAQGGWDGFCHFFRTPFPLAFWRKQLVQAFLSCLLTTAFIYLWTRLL

Estrogen receptor beta = Estrogen receptor beta (Homo sapiens, UniProt Q92731); assay: ERβ–SRC-3 coactivator interaction inhibitors, confirmation, orthogonal assay, biochemical, ELISA, streptavidin-HRP readout (AID 1060)
Protein Tat = target: T2, Protein Tat (Human immunodeficiency virus type 1 group M subtype B (isolate HXB2)(HIV-1), UniProt P04608); assay type: functional;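 note: tat binding to TAR RNA read out by fluorescence polarization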
T2 sequence (P04608 whole entry): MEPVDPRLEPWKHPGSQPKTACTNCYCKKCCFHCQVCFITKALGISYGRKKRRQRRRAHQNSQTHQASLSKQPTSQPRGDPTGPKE

[1] = THP-1 cell cytotoxicity, dose response, cytotoxicity control for Vif-APOBEC3G degradation inhibitor project, THP-1 cells (AID 1117359); assay type: functional; conditions: Human immunodeficiency virus 1, THP-1
[2] = target: T3, Glutathione-S-transferase (Schistosoma japonicum, UniProt Q26513); assay: biotin-GST/anti-GST TR-FRET signal inhibitors, dose response, artefact control for Vif-APOBEC3G degradation inhibitor project, biochemical (AID 1117362); assay type: functional
T3 sequence (Q26513 whole entry): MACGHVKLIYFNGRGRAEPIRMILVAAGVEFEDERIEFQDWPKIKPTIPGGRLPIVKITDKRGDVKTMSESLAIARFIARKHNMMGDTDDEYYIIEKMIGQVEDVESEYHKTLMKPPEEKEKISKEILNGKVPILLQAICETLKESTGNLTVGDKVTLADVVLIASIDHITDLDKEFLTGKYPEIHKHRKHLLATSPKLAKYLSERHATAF

[3] = Luminescence Cell-Based Dose Response HTS to Identify Activators of Luciferase Translation or Activity in H4-C Neuroglioblastoma Cells. [Related pubchem assays: 1829 (Project Summary), 1814 (Primary HTS)]; assay type: functional
[4] = Luminescence Cell-Based Dose Response to Identify Activators of 5'UTR Stem-Loop Driven Prion Protein mRNA Translation in H4-C Neuroglioblastoma Cells. [Related pubchem assays: 1829 (Project Summary), 1814 (Primary HTS)]; assay type: functional
[5] = Luminescence Cell-Based Dose Retest to Confirm Activators of 5'UTR Stem-Loop Driven Alpha-Synuclein mRNA Translation in H4 Neuroglioblastoma Cells. [Related pubchem assays (depositor defined):AID1813, AID1829]; assay type: functional
[6] = Luminescence Cell-Based Dose Response HTS to Identify Activators of 5'UTR Stem-Loop Driven Prion Protein mRNA Translation in H4-C Neuroglioblastoma Cells. [Related pubchem assays: 1829 (Project Summary), 1814 (Primary HTS)]; assay type: functional
[7] = Luminescence Cell-Based Dose Confirmation HTS to Identify Activators of 5'UTR Stem-Loop Driven Alpha-Synuclein mRNA Translation in H4 Neuroglioblastoma Cells. [Related pubchem assays: 1829 (Project Summary), 1814 (Primary HTS)]; assay type: functional
[8] = Luminescence Cell-Based Dose Response HTS to Identify Activators of Luciferase Translation or Activity in H4 […] Cells. [Related pubchem assays: 1829 (Project Summary), 1814 (Primary HTS)]; assay type: functional
H4 = assay: Luminescence Cell-Based Dose Response HTS to Identify Activators of 5'UTR Stem-Loop Driven Prion Protein mRNA Translation in H4 Neuroglioblastoma Cells. [Related pubchem assays: 1829 (Project Summary), 1814 (Primary HTS)]; assay type: functional; conditions: Homo sapiens
[9] = Luminescence Cell-Based Dose Response to Identify Activators of Luciferase Translation or Activity in H4-C Neuroglioblastoma Cells. [Related pubchem assays: 1829 (Project Summary), 1814 (Primary HTS)]; assay type: functional
[10] = Luminescence Cell-Based Dose Confirmation to Identify Activators of 5'UTR Stem-Loop Driven Alpha-Synuclein mRNA Translation in H4 Neuroglioblastoma Cells. [Related pubchem assays: 1829 (Project Summary), 1814 (Primary HTS)]; assay type: functional
Cytochrome P450 3A4 = Cytochrome P450 3A4 (Homo sapiens, UniProt P08684); conditions: Potency;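 note: confirmatory qHTS run detecting inhibitors and substrates of CYP3A4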
Cytochrome P450 2C9 = Cytochrome P450 2C9 (Homo sapiens, UniProt P11712); conditions: Potency
Saccharomyces cerevisiae = assay: NALP1 inhibitor project selectivity study, Caspase-1/ASC signal blockade IC50 in S. cerevisiae (AID 488863); assay type: functional, organism-based
[11] = target: NACHT, LRR and PYD domains-containing protein 1 (Homo sapiens, UniProt Q9C000); assay: NALP1 inhibitors in yeast, dose response, luminescent (AID 488860); assay type: functional
Salmon testes DNA = assay: DNA intercalators displacing acridine orange, dose response, artefact control for KSHV LANA DNA-binding inhibitor project, biochemical, fluorescence polarization, cherry-picked samples, set 2 (AID 504727); design: species or system Salmonidae
ORF 73 = ORF 73 (Human herpesvirus 8, UniProt O40947); assay: inhibitors of C-LANA binding to LBS DNA, dose response, biochemical, fluorescence polarization, cherry-picked samples (AID 504725); design: species or system Human gammaherpesvirus 8;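 note: fluorescence polarization of a labeled DNA duplex reporting LANA DNA binding; potency is for inhibitors that block LANA binding to the DNA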
[12] = target: Glucose-6-phosphate 1-dehydrogenase (Homo sapiens, UniProt P11413); assay: human G6PD enzyme inhibitors, dose response, selectivity assay for P. falciparum G6PD inhibitor project, biochemical, fluorescence (AID 504792); assay type: functional
[13] = target: DNA dC->dU-editing enzyme APOBEC-3G (Homo sapiens, UniProt Q9HC16); assay: Dose Response confirmation of small molecule APOBEC3G DNA Deaminase Inhibitors via a fluorescence-based single-stranded DNA deaminase assay. [Related pubchem assays (depositor defined):AID493012, AID493028]; assay type: functional
DNA dC->dU-editing enzyme APOBEC-3G, sequence (Q9HC16 whole entry): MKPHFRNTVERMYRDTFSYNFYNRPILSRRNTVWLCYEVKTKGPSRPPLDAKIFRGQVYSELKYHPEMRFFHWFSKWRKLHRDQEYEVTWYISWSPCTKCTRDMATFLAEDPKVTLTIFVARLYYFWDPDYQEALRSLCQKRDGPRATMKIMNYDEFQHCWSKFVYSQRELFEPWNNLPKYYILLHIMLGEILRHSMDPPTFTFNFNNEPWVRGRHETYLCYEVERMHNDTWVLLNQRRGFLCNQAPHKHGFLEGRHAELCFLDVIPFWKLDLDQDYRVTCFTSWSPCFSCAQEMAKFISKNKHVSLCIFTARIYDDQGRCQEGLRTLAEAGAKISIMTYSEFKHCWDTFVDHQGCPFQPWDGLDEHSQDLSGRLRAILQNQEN

Cytochrome P450 3A4, sequence (P08684 whole entry): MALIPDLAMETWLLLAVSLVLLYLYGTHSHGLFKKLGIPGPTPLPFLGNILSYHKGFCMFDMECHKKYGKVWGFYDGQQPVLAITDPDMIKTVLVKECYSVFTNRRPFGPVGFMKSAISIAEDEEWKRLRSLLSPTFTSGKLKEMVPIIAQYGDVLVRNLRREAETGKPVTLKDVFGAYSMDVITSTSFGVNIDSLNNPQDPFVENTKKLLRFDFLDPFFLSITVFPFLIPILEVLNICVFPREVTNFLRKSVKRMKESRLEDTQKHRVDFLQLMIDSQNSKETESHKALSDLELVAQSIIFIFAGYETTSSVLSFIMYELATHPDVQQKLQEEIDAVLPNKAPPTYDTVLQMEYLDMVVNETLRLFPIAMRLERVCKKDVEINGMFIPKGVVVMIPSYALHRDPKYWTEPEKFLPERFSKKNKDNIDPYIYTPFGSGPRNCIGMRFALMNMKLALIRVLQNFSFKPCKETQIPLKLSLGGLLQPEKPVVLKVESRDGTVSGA
Estrogen receptor beta, sequence (Q92731 whole entry): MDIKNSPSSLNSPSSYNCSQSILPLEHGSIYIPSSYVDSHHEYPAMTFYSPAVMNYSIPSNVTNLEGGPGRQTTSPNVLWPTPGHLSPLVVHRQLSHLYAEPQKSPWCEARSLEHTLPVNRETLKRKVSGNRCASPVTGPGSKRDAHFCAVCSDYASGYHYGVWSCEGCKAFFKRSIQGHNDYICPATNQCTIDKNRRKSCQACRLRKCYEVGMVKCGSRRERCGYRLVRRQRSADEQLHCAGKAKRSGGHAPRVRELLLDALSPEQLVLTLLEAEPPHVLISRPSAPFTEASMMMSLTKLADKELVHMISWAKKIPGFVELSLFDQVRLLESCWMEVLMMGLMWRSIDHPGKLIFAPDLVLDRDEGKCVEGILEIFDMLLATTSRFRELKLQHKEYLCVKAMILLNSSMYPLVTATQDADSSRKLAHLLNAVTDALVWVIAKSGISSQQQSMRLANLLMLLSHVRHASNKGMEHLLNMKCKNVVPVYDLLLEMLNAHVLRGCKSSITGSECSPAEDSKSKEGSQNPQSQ
NACHT, LRR and PYD domains-containing protein 1, sequence (Q9C000 1-1212 limits assumed): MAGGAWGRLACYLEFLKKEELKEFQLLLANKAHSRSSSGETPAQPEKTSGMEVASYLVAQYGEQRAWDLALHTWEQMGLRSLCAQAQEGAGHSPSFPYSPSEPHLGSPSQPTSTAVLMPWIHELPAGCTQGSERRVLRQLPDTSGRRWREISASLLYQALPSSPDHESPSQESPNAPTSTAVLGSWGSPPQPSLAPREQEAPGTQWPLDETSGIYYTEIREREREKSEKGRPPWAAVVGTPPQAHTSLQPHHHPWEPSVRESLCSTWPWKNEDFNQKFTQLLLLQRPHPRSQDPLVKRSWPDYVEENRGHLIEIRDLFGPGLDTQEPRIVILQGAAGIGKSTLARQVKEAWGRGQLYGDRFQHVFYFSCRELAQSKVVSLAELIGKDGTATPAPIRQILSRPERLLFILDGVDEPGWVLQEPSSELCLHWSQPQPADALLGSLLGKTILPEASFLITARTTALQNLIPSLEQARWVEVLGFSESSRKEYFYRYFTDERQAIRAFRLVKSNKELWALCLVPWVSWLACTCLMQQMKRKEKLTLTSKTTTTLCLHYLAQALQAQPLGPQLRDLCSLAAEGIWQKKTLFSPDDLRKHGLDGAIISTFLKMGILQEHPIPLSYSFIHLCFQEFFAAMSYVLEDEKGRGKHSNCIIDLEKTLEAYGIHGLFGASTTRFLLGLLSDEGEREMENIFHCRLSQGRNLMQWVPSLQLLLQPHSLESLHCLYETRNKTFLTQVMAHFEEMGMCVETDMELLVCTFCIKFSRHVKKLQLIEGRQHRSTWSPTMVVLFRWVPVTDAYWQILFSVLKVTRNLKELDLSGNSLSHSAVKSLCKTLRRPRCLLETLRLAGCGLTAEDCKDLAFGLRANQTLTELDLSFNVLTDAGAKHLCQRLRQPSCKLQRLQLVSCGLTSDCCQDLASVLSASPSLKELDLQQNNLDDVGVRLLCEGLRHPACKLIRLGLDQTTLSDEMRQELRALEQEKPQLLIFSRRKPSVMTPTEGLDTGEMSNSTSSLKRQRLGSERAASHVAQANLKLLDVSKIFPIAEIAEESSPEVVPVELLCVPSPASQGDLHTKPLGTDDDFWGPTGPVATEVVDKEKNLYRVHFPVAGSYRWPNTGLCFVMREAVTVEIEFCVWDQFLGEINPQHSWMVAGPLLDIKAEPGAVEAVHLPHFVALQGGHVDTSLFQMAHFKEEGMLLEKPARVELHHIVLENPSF
NACHT, LRR and PYD domains-containing protein 1, sequence (Q9C000 1213-1473 limits assumed): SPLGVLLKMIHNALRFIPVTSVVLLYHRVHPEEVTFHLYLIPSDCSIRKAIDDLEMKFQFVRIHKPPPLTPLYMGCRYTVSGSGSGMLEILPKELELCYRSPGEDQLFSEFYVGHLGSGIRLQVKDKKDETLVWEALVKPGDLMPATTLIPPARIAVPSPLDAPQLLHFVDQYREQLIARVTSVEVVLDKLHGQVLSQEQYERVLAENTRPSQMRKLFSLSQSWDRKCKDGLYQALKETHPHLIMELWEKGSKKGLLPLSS
Cytochrome P450 2C9, sequence (P11712 whole entry): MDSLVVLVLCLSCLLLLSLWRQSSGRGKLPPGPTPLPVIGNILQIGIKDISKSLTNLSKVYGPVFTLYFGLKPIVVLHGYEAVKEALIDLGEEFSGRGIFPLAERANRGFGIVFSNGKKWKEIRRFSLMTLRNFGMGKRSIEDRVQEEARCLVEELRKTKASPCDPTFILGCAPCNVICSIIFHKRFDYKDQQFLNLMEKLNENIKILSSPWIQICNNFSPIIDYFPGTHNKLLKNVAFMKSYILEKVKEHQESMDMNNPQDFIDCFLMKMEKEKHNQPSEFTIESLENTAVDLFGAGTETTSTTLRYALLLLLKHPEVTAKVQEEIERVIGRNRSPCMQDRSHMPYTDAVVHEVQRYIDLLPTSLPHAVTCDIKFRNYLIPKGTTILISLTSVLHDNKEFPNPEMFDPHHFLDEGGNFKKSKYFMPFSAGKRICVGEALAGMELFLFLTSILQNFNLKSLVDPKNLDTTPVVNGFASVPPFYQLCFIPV
ORF 73, sequence (O40947 whole entry): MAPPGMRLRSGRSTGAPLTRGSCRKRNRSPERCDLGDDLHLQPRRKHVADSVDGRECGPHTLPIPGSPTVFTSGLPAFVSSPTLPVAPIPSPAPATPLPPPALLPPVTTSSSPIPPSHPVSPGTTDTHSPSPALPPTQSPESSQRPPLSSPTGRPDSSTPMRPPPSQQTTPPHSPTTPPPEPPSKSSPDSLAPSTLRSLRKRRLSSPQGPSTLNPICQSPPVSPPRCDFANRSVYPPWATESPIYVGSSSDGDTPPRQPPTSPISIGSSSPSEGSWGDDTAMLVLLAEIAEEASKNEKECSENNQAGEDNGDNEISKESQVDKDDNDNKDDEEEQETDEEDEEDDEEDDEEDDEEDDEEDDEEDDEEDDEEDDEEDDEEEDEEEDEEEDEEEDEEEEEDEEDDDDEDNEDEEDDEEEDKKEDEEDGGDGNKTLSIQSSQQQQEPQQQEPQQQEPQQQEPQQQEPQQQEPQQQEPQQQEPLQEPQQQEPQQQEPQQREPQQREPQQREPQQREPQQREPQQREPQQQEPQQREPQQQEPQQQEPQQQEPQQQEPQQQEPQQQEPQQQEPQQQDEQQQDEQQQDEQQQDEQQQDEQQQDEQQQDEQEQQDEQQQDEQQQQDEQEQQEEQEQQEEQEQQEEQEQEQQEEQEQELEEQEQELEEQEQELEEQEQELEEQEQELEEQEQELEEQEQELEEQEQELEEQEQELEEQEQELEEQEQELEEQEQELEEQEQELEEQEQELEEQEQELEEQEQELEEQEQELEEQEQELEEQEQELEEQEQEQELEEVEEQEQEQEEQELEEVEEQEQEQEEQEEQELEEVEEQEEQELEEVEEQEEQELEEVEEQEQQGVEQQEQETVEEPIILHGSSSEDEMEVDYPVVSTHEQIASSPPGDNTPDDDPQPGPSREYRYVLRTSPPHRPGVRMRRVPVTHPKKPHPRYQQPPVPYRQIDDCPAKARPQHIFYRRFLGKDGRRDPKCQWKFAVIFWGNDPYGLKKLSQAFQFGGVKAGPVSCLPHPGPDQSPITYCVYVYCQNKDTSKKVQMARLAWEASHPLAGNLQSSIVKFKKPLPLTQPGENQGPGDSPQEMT
Glucose-6-phosphate 1-dehydrogenase, sequence (P11413 whole entry): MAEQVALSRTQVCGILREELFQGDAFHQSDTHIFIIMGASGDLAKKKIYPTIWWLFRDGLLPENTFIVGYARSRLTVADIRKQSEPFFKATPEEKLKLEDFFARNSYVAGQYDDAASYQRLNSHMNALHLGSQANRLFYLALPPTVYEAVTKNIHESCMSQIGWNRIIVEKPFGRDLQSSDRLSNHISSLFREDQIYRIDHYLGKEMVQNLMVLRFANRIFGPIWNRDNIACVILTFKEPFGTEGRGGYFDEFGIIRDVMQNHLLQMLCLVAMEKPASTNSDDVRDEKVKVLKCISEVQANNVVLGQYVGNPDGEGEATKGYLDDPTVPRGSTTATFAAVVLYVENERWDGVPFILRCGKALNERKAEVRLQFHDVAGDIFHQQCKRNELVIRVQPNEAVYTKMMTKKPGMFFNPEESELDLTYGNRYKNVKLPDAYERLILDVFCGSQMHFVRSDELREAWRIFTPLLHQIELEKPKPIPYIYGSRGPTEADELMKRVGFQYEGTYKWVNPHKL

Which IC50 (Bcl-2-like protein 10) does the source give for `CN(C)c1ccc(NC(=O)Cn2cc3c(n2)CCCC3)cc1` here?
The IC50 was 21.8 µM (active).

What about the IC50 (Estrogen receptor beta) of the same compound?
Its IC50 is 0.326 µM (not active).

And the IC50 (Protein Tat)?
Its IC50 is > 100 µM (inconclusive).

And the CC50 [1]?
Its CC50 is 22.2 µM (active).

What about the IC50 [2] of the same compound?
The IC50 was 22.1 µM (active).

Which results are given for `O=C(COC(=O)Cn1cnc2ccccc21)Nc1cc2c(cc1Cl)C(=O)c1ccccc1C2=O`?
EC50 [3]: 0.609 µM (active); EC50 [4]: > 12 µM (not active); EC50 [5]: > 195 µM (inactive); EC50 [6]: 2.52 µM (active); EC50 [7]: < 0.1 µM (active); EC50 [8]: > 120 µM (not active); EC50 (H4): 40.4 µM (active); EC50 [9]: > 12 µM (not active); EC50 [10]: 1.19 µM (active)

Which results are given for `CC1CCC2C(=O)N3C(CCC(C)[C@H]3c3cccc(N4CCCC4=O)c3)C(=O)N2C1c1cccc(N2CCCC2=O)c1` (stereo partly drawn)?
AC50 (Cytochrome P450 3A4): 2.51 µM (inconclusive); AC50 (Cytochrome P450 2C9): 2.51 µM (inconclusive)

For `CCN(C(=O)COC(=O)c1cccnc1Nc1cccc(C(F)(F)F)c1)C1CCS(=O)(=O)C1` (stereo not drawn), which IC50 (Saccharomyces cerevisiae) is on record?
The IC50 was > 100 µM (inactive).

And the IC50 [11]?
Its IC50 is > 100 µM (inactive).

Which IC50 (Bcl-2-like protein 10) does the source give for `CN(C)c1ccc(NC(=O)CN2C(=O)CC(c3ccccc3)=Nc3ccccc32)cc1` here?
The IC50 was > 100 µM (inactive).

For `O=C(NC12CC3CC(CC(C3)C1)C2)N1CCN(c2ncccn2)CC1`, which AC50 (Salmon testes DNA) is on record?
The AC50 was 210 µM (active).

And the AC50 (ORF 73)?
Its AC50 is 81.5 µM (active).

Which IC50 [12] does the source give for `CCC1(C)CC(C(N)=S)CCO1` (stereo not drawn) here?
The IC50 was > 80 µM (inactive).

What about the IC50 [13] of the same compound?
Its IC50 is 33.2 µM (active).
